Laboratory results published in patent US11466286B2, “Methods and compositions for conferring and/or enhancing herbicide tolerance using protoporphyrinogen oxidase or variant thereof” (FarmHannong Co., Ltd., priority 2016, dated 2022).

Assays:
[1] = biological target: CyPPO10 (Thermosynechococcus elongatus BP-1 PPO, SEQ ID NO: 2) variant F360M, MBP fusion (Thermosynechococcus vestitus, UniProt Q8DLV2, F360M); experiment: biochemical
[2] = biological target: CyPPO10 (Thermosynechococcus elongatus BP-1 PPO, SEQ ID NO: 2) variant F360I, MBP fusion (Thermosynechococcus vestitus, UniProt Q8DLV2, F360I); experiment: PPO inhibition assay; assay type: biochemical
[3] = biological target: CyPPO10 (Thermosynechococcus elongatus BP-1 PPO, SEQ ID NO: 2) variant R89A + F360I, MBP fusion (Thermosynechococcus vestitus, UniProt Q8DLV2, F360I/R89A); experiment: biochemical
[4] = tested on: CyPPO13 (Synechococcus sp. JA-3-3Ab PPO, SEQ ID NO: 4), wild type, MBP fusion; experiment: PPO inhibition assay; assay type: biochemical; details: herbicide 0-5,000 nM, 50 μM substrate
[5] = biological target: CyPPO10 (Thermosynechococcus elongatus BP-1 PPO, SEQ ID NO: 2), wild type, MBP fusion (Thermosynechococcus vestitus, UniProt Q8DLV2); experiment: PPO inhibition assay; assay type: biochemical
[6] = biological target: CyPPO10 (Thermosynechococcus elongatus BP-1 PPO, SEQ ID NO: 2) variant R89A + F360M, MBP fusion (Thermosynechococcus vestitus, UniProt Q8DLV2, F360M/R89A); experiment: biochemical; details: herbicide 0-5,000 nM, 50 μM substrate
[7] = biological target: A. thaliana PPO1 (AtPPO1) (Arabidopsis thaliana, UniProt P55826); experiment: Michaelis-Menten kinetics of PPO (plant control); assay type: biochemical; details: protoporphyrinogen IX oxidation
Amaranthus PPO1 = experiment: Michaelis-Menten kinetics of PPO (plant control); assay type: biochemical; details: protoporphyrinogen IX oxidation
[8] = tested on: CyPPO13 (Synechococcus sp. JA-3-3Ab protoporphyrinogen oxidase, wild type, SEQ ID NO: 4), MBP fusion; experiment: Michaelis-Menten kinetics of purified PPO; assay type: biochemical; details: protoporphyrinogen IX oxidation, room temperature, pH 8.0
[9] = biological target: T1, CyPPO10 (Thermosynechococcus elongatus BP-1 protoporphyrinogen oxidase, wild type, SEQ ID NO: 2), MBP fusion (Thermosynechococcus vestitus, UniProt Q8DLV2); experiment: Michaelis-Menten kinetics of purified PPO; assay type: biochemical; details: protoporphyrinogen IX oxidation, room temperature, pH 8.0
T1 construct: kinetics with protoporphyrinogen IX
Procedure: The enzyme activities of PPO protein and PPO protein variants were examined, and inhibition assay by PPO-inhibiting herbicides was conducted. It was confirmed that the PPO protein has low water-solubility, but in case of being expressed as a fusion protein with MBP (maltose binding protein) (MBP-PPO), the PPO protein is able to be stably expressed as water-soluble form. Therefore, the wild type and variant proteins which were expressed in the form of fusion protein with MBP were used in the present test (refer to FIG. 4).
At first, a substrate of PPO protein, Protoporphyrinogen IX was synthesized. This process was performed in the space where nitrogen gas is streamed. […]
Two hundred microliters (200 μl) of reaction mixture containing a purified PPO protein were placed in 96 well plates, and preincubated for 30 min at room temperature to reduce the oxygen concentration by the reaction of glucose oxidase-catalase. […] The reaction proceeded at room temperature for 30 min and the fluorescence of protoporphyrin IX was measured using Microplate reader (Sense, Hidex) (excitation: 405 nm; emission: 633 nm). […] To this, 2.7N HCl was added, and the absorbance at 408 nm was measured. A standard curve was generated using standard protoporphyrin IX, and the PPO activity was measured by calibration of protoporphyrin IX using the standard curve of protoporphyrin IX. […]

Chain of A. thaliana PPO1 (AtPPO1) (P55826 35-537): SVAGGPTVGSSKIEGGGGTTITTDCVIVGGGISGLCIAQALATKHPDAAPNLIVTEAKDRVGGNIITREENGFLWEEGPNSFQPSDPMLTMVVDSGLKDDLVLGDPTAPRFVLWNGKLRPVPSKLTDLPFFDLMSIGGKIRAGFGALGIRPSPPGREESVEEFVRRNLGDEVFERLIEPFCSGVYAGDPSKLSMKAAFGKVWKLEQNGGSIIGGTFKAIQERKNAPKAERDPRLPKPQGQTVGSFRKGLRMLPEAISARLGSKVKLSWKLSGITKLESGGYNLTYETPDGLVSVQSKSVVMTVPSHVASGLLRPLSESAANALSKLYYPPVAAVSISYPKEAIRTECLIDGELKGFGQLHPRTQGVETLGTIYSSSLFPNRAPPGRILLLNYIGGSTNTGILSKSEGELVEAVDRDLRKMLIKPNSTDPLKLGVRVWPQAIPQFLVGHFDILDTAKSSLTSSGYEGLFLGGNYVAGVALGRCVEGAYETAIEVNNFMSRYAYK
T1 sequence (Q8DLV2 1-467): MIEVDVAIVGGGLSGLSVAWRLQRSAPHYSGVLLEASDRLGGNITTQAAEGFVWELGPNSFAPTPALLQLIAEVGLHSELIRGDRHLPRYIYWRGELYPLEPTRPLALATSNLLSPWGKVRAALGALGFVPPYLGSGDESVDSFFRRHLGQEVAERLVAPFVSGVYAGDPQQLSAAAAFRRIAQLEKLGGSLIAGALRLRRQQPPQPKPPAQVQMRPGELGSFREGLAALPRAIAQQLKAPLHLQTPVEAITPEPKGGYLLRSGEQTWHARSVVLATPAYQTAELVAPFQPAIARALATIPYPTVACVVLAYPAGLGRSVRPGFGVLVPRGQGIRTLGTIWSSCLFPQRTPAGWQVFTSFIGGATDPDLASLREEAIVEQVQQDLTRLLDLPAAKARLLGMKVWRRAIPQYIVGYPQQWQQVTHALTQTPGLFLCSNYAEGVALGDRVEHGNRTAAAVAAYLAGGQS
Chain of CyPPO10 (Thermosynechococcus elongatus BP-1 PPO, SEQ ID NO: 2), wild type, MBP fusion (Q8DLV2 1-467): as above
Chain of CyPPO10 (Thermosynechococcus elongatus BP-1 PPO, SEQ ID NO: 2) variant F360I, MBP fusion (Q8DLV2 entry or part of it F360I): as the sequence (Q8DLV2 1-467) above, with F360I counted along it
Chain of CyPPO10 (Thermosynechococcus elongatus BP-1 PPO, SEQ ID NO: 2) variant F360M, MBP fusion (Q8DLV2 entry or part of it F360M): as the sequence (Q8DLV2 1-467) above, with F360M counted along it
Chain of CyPPO10 (Thermosynechococcus elongatus BP-1 PPO, SEQ ID NO: 2) variant R89A + F360M, MBP fusion (Q8DLV2 entry or part of it R89A/F360M): as the sequence (Q8DLV2 1-467) above, with R89A, F360M counted along it
Chain of CyPPO10 (Thermosynechococcus elongatus BP-1 PPO, SEQ ID NO: 2) variant R89A + F360I, MBP fusion (Q8DLV2 entry or part of it R89A/F360I): as the sequence (Q8DLV2 1-467) above, with R89A, F360I counted along it

Row | Compound | IC50 [1] | IC50 [2] | IC50 [3] | IC50 [4] | IC50 [5] | IC50 [6] | Vmax [7] | Vmax (Amaranthus PPO1) | Vmax [8] | Vmax [9]
1 | C=CCOC(=O)C(C)(C)OC(=O)c1cc(-n2c(=O)cc(C(F)(F)F)n(C)c2=O)ccc1Cl [Butafenacil] | 0.024 µM | 0.268 µM | 1.32 µM | 0.037 µM | 0.008 µM | 0.674 µM | – | – | – | –
2 | C=Cc1c2[nH]c(c1C)Cc1[nH]c(c(CCC(=O)O)c1C)Cc1[nH]c(c(C)c1CCC(=O)O)Cc1[nH]c(c(C)c1C=C)C2 [Protoporphyrinogen IX] | – | – | – | – | – | – | 134.4 ± 19 μM mg protein^−1 min^−1 | 57 ± 7 μM mg protein^−1 min^−1 | 341.4 ± 14 μM mg protein^−1 min^−1 | 949.1 ± 64 μM mg protein^−1 min^−1
